Test [1] concerns the target T1, hGHR (Homo sapiens, UniProt P10912).
T1 construct: previously reported to express high levels of endogenous hGHR; host or cells: SK-MEL-28, MALME-3M, IM9
T1 sequence (P10912 19-638): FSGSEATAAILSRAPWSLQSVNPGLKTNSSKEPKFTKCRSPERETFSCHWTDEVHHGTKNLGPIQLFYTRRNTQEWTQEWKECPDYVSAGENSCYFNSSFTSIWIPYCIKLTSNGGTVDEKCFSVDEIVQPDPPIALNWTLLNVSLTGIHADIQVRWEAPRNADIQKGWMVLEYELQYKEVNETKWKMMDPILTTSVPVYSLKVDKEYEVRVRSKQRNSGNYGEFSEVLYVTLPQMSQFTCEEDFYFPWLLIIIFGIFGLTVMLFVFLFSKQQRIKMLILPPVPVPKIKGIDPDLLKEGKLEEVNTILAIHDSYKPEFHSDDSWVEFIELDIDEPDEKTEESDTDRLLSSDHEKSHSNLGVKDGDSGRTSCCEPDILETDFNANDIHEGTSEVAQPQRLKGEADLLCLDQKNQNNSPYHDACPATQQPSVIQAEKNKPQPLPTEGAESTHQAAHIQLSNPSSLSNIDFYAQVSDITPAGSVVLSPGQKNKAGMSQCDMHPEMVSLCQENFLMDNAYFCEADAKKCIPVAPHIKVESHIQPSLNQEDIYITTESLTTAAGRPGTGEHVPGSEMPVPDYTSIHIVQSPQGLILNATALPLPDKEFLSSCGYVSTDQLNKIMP
The test is described as follows: hGH-mediated pSTAT5 in IM9 cells, Western blot. It counts as cell-based. Conditions: 200 nM S1H with 2.5 nM hGH, 20 min, Western blot densitometry, n = 3. The protocol: SK-MEL-28, MALME-3M, and T84 cells were grown and maintained in Eagle's Minimal Essential Medium. IM9 and L cells were grown in RPMI-1640 media and Dulbecco's modified Eagle's medium, respectively. All growth media was supplemented with 10% fetal bovine serum and 1× antibiotic-antimycotic […] solution. Cells were grown at 37 °C under a 5% CO2 atmosphere in a humidified incubator, and growth media was replaced every 48 h during incubation. No hGH was present in or added to the growth media unless specifically indicated. […]
Following treatment, the cells were harvested at the indicated time points, and the total protein was extracted. […] Sample protein concentration was quantified using a Bradford assay with bovine serum albumin as the protein standard. Absorbance at 595 nm was measured using a Spectramax 250 multimode plate reader (Molecular Devices) and processed using SoftmaxPro v4.7.1 software.
Cytosolic fractions from treated cells were thawed on ice, and 80 μg protein was loaded onto polyacrylamide gels for separation by SDS-PAGE. […] Chemiluminescence signals were detected using a GelDoc (BioRad) fluorescence imager. […] Percent inhibition was then measured by subtracting the pSTAT5 band intensity in each lane from the pSTAT5 band intensity of hGH-treated samples. […]

In test [2] the target is T1, hGHR. The experiment in a line: hGH-mediated pSTAT5 in SK-MEL-28 cells, ELISA. The format is cell-based. To be noted: SK-MEL-28, 20 min, ELISA (pSTAT5A Y694/pSTAT5B Y699), SK-MEL-28 cells co-treated with hGH and 200 nM peptide, Equation 2, triplicate. The protocol:
SK-MEL-28, MALME-3M, and T84 cells were grown and maintained in Eagle's Minimal Essential Medium. IM9 and L cells were grown in RPMI-1640 media and Dulbecco's modified Eagle's medium, respectively. All growth media was supplemented with 10% fetal bovine serum and 1× antibiotic-antimycotic […] solution. Cells were grown at 37 °C under a 5% CO2 atmosphere in a humidified incubator, and growth media was replaced every 48 h during incubation. No hGH was present in or added to the growth media unless specifically indicated. Between 12 to 16 h after seeding, adherent cells (SK-MEL-28, MALME-3M, T84, L cells) were switched to serum-free growth media (no GH) and starved for 4 h before the addition of hGH, bGH (L cells), hPRL (MALME-3M and T84 cells), or buffer at the concentrations noted. Cells were then allowed to incubate for an additional 20 min before being harvested. For suspended cell treatments, IM9 cells were pelleted by centrifugation at 140g for 5 min at room temperature. The supernatant was then removed by aspiration, and the cells were resuspended in serum-free media. The cells were then starved for 4 h at 37 °C under a 5% CO2 atmosphere in a humidified incubator and subsequently treated with hGH, S1H, or both at the indicated concentrations for 20 min before harvesting by centrifugation.
Following treatment, the cells were harvested at the indicated time points, and the total protein was extracted. To affect protein extraction, the treatment media was removed by aspiration, and the cells were washed twice with ice-cold PBS. Following washing, total protein was extracted from the cells using RIPA buffer (100 μl/million cells) supplemented with 1.5× Halt protease and phosphatase inhibitor cocktail. Briefly, chilled RIPA buffer was added to the cells, and the lysis reaction was allowed to incubate for 5 min at 4 °C. Adherent cells were harvested for lysis using a sterile cell scraper. The resultant cell suspensions were sonicated on ice for 60 s with ON (2-s)/OFF (1-s) pulses at 2% power. The cell lysate was then cleared by centrifugation at 8000g for 10 min at 4 °C. Following centrifugation, the supernatant was collected and stored at −80 °C until further use. Sample protein concentration was quantified using a Bradford assay with bovine serum albumin as the protein standard. Absorbance at 595 nm was measured using a Spectramax 250 multimode plate reader (Molecular Devices) and processed using SoftmaxPro v4.7.1 software.
Intracellular pSTAT5A (Y694) and pSTAT5B (Y699) levels were quantified from clarified protein samples using an InstantOne ELISA kit (Thermo Fisher) according to the manufacturer’s instructions. Briefly, 50 μl of protein sample (1 mg/ml) were added to wells containing 50 μl antibody cocktail in a 96-well plate and incubated at room temperature for 2 h with shaking (300 rpm). Following incubation, the wells were washed, and the bound antibodies were detected by adding detection regent and incubating the plate for 1 h at room temperature with shaking (300 rpm). Following incubation, stop reagent was added, and the absorbance was read at 450 nm using a UV-VIS spectrophotometer (Molecular Devices, model M2). All experiments were performed in triplicate. Percent pSTAT5 inhibition was calculated from background-subtracted pSTAT5 levels using Equation 2:(2) %inhibition=100×(pSTAT5hGH−pSTAT5PI)/pSTAT5hGH where pSTAT5hGH is the fold-induction of pSTAT5 upon treatment with hGH alone and pSTAT5PI is the fold-induction of pSTAT5 upon co-treatment with hGH and peptide inhibitor.

In the case of `CC[C@H](C)[C@H](NC(=O)[C@H](Cc1ccc(O)cc1)NC(C)=O)C(=O)N1CCC[C@H]1C(=O)N[C@@H](CCCCN)C(=O)N[C@@H](CCC(=O)O)C(=O)N[C@@H](CCC(N)=O)C(=O)N[C@@H](CCCCN)C(=O)N[C@@H](Cc1ccc(O)cc1)C(=O)N[C@@H](CO)C(=O)N[C@@H](Cc1ccccc1)C(=O)N[C@@H](CC(C)C)C(=O)N[C@@H](CCC(N)=O)C(=O)N[C@@H](CC(N)=O)C(=O)N1CCC[C@H]1C(=O)N[C@@H](CCC(N)=O)C(=O)N[C@H](C(N)=O)[C@@H](C)O` [S1H], the “suppression of hGH-mediated pSTAT5” value in test [1] is listed as 67%. For the same compound, the inhibition at 0.2 µM in test [2] was determined as 98.3%.

Source of the values: publication PMC8086144, “A novel peptide antagonist of the human growth hormone receptor” (The Journal of Biological Chemistry, 2021).
